According to patent publication US8012998B2, “Pyrrolidine aryl-ether as NK-3 receptor antagonists” (Hoffmann—LA Roche Inc., priority 2007, dated 2011):

Molecular target: T1, human NK3 receptor (Homo sapiens, UniProt P29371)
T1 construct: expressed in transfected cells; host or cells: HEK293 cells (transient expression), membrane preparation
T1 sequence (P29371 1-465): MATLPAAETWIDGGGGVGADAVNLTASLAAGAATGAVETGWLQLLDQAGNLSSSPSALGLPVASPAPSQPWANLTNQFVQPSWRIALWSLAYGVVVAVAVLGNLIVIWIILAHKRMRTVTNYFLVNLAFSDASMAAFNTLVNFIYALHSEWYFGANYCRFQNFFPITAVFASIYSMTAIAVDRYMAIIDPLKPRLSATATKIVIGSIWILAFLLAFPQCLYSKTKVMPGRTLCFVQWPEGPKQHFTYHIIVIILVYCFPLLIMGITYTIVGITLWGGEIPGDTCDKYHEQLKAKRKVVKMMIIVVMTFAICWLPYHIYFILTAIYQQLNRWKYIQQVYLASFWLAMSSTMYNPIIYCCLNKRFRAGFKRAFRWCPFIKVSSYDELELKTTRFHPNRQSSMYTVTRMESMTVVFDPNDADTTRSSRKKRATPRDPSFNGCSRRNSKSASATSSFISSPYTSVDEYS
Assay: [3H]SR142801 competition binding assay (hNK3 receptor binding)
Details: [3H]SR142801 radioligand; membranes from HEK293 cells transiently expressing recombinant human NK3 receptor; Ki by Cheng-Prussoff; read-out: KiNK3 h
Procedure: [^3H]SR^142801 Competition Binding Assay
hNK3 receptor binding experiment were performed using [^3H]SR^142801 (Catalog No. TRK1035, specific activity: 74.0 Ci/mmol, Amersham, GE Healthcare UK limited, Buckinghamshire, UK) and membrane isolated from HEK293 cells transiently expressing recombinant human NK3 receptor. After thawing, the membrane homogenates were centrifuged at 48,000×g for 10 min at 4° C., the pellets were resuspended in the 50 mM Tris-HCl, 4 mM MnCl2, 1 μM phosphoramidon, 0.1% BSA binding buffer at pH 7.4 to a final assay concentration of 5 μg protein/well. […] At the end of the incubation, membranes were filtered onto unitfilter (96-well white microplate with bonded GF/C filter preincubated 1 h in 0.3% PEI +0.3% BSA, Packard BioScience, Meriden, Conn.) with a Filtermate 196 harvester (Packard BioScience) and washed 4 times with ice-cold 50 mM Tris-HCl, pH 7.4 buffer. Nonspecific binding was measured in the presence of 10 μM SB222200 for both radioligands. The radioactivity on the filter was counted (5 min) on a Packard Top-count microplate scintillation counter with quenching correction after addition of 45 μl of microscint 40 (Canberra Packard S.A., Zutrich, Switzerland) and shaking for 1 h. Inhibition curves were fitted according to the Hill equation: y=100/(1+(x/IC50)^nH), where nH=slope factor using Excel-fit 4 software (Microsoft). IC50 values were derived from the inhibition curve and the affinity constant (Ki) values were calculated using the Cheng-Prussoff equation Ki=IC50/(1+[L]/KD) where [L] is the concentration of radioligand and KD is its dissociation constant at the receptor, derived from the saturation isotherm. All experiments were performed in duplicate and the mean ± standard error (SEM) of the individual Ki values was calculated.

Row | SMILES | Ki [µM]
1 | Cc1ncc(C(=O)N2C[C@@H]([C@@H](C)Oc3ccc(Cl)cn3)[C@@H](c3ccc(Cl)c(Cl)c3)C2)c(C)n1 (racemic) [Example 37] | 0.0316
2 | CC(=O)Nc1ccc(C(=O)N2C[C@@H]([C@@H](C)Oc3ccc(Cl)cn3)[C@@H](c3ccc(Cl)c(Cl)c3)C2)cn1 (racemic) [Example 38] | 0.0156
3 | C[C@@H](Oc1ccc(Cl)cn1)[C@@H]1CN(C(=O)c2ccc(CN(C)C)nc2)C[C@H]1c1ccc(Cl)c(Cl)c1 (racemic) [Example 39, [(3SR,4RS)-3-[(RS)-1-(5-Chloro-pyridin-2-yloxy)-ethyl]-4-(3,4-dichloro-phenyl)-pyrrolidin-1-yl]-(6-dimethylaminomethyl-pyridin-3-yl)-methanone] | 0.0093
4 | C[C@@H](Oc1ccc(Cl)cn1)[C@@H]1CN(C(=O)c2ccc(CN(C)C)cc2)C[C@H]1c1ccc(Cl)c(Cl)c1 (racemic) [Example 42, [(3SR,4RS)-3-[(RS)-1-(5-Chloro-pyridin-2-yloxy)-ethyl]-4-(3,4-dichloro-phenyl)-pyrrolidin-1-yl]-(4-dimethylaminomethyl-phenyl)-methanone] | 0.0255
5 | C[C@H](Oc1ccc(C#N)cn1)[C@H]1CN(C(=O)c2ccc(CN(C)C)nc2)C[C@@H]1c1ccc(Cl)c(Cl)c1 (racemic) [Example 43, 6-{(SR)-1-[(3RS,4SR)-4-(3,4-Dichloro-phenyl)-1-(6-dimethylaminomethyl-pyridine-3-carbonyl)-pyrrolidin-3-yl]-ethoxy}-nicotinonitrile] | 0.0246
6 | C[C@@H](Oc1ccc(Cl)cn1)[C@@H]1CN(C(=O)c2ccc(CCN3CCCC3)nc2)C[C@H]1c1ccc(Cl)c(Cl)c1 (racemic) [Example 46, [(3SR,4RS)-3-[(RS)-1-(5-Chloro-pyridin-2-yloxy)-ethyl]-4-(3,4-dichloro-phenyl)-pyrrolidin-1-yl]-[6-(2-pyrrolidin-1-yl-ethyl)-pyridin-3-yl]-methanone] | 0.0019
7 | CSc1ncc(C(=O)N2C[C@@H]([C@@H](C)Oc3ccc(Cl)cn3)[C@H](c3ccc(Cl)c(Cl)c3)C2)cn1 (racemic) [Example 48, [(3SR,4RS)-3-[(RS)-1-(5-Chloro-pyridin-2-yloxy)-ethyl]-4-(3,4-dichloro-phenyl)-pyrrolidin-1-yl]-(2-methylsulfanyl-pyrimidin-5-yl)-methanone] | 0.0426
8 | C[C@@H](Oc1ccc(Cl)cn1)[C@@H]1CN(C(=O)c2ccc(C#N)cc2)C[C@H]1c1ccc(Cl)c(Cl)c1 (racemic) [Example 49, 4-[(3SR,4RS)-3-[(RS)-1-(5-Chloro-pyridin-2-yloxy)-ethyl]-4-(3,4-dichloro-phenyl)-pyrrolidin-1-carbonyl]-benzonitrile] | 0.0223
9 | C[C@H](Oc1ccc(C#N)cn1)[C@H]1CN(C(=O)c2ccc(C#N)nc2)C[C@@H]1c1ccc(Cl)c(Cl)c1 (racemic) [Example 52, 6-{(SR)-1-[(3RS,4SR)-4-(3,4-Dichloro-phenyl)-1-(6-cyano-pyridine-3-carbonyl)-pyrrolidin-3-yl]-ethoxy}-nicotinonitrile] | 0.0054
10 | Cc1ncc(C(=O)N2C[C@H]([C@H](C)Oc3ccc(C#N)cn3)[C@@H](c3ccc(Cl)c(Cl)c3)C2)cn1 (racemic) [Example 57, 6-{(SR)-1-[(3RS,4SR)-4-(3,4-Dichloro-phenyl)-1-(2-methyl-pyrimidine-5-carbonyl)-pyrrolidin-3-yl]-ethoxy}-nicotinonitrile] | 0.0234
11 | C[C@H](Oc1ccc(C#N)cn1)[C@H]1CN(C(=O)c2ccc(-c3cnco3)cc2)C[C@@H]1c1ccc(Cl)c(Cl)c1 (racemic) [Example 59, 6-{(SR)-1-[(3RS,4SR)-4-(3,4-Dichloro-phenyl)-1-(4-oxazol-5-yl-benzoyl)-pyrrolidin-3-yl]-ethoxy}-nicotinonitrile] | 0.0021
12 | Cc1noc(-c2ccc(C(=O)N3C[C@H]([C@H](C)Oc4ccc(C#N)cn4)[C@@H](c4ccc(Cl)c(Cl)c4)C3)cc2)n1 (racemic) [Example 60, 6-((SR)-1-{(3RS,4SR)-4-(3,4-Dichloro-phenyl)-1-[4-(3-methyl-[1,2,4]oxadiazol-5-yl)-benzoyl]-pyrrolidin-3-yl}-ethoxy)-nicotinonitrile] | 0.0011
13 | CCc1noc(-c2ccc(C(=O)N3C[C@H]([C@H](C)Oc4ccc(C#N)cn4)[C@@H](c4ccc(Cl)c(Cl)c4)C3)cc2)n1 (racemic) [Example 62, 6-((SR)-1-{(3RS,4SR)-4-(3,4-Dichloro-phenyl)-1-[4-(3-ethyl-[1,2,4]oxadiazol-5-yl)-benzoyl]-pyrrolidin-3-yl}-ethoxy)-nicotinonitrile] | 0.0594
14 | Cc1nccn1-c1ccc(C(=O)N2C[C@H]([C@H](C)Oc3ccc(C#N)cn3)[C@@H](c3ccc(Cl)c(Cl)c3)C2)cc1 (racemic) [Example 64, 6-((SR)-1-{(3RS,4SR)-4-(3,4-Dichloro-phenyl)-1-[4-(2-methyl-imidazol-1-yl)-benzoyl]-pyrrolidin-3-yl}-ethoxy)-nicotinonitrile] | 0.0357

More lines, in order of falling Ki, values ahead:

Row | Ki [µM] | SMILES
15 | 0.0787 | C[C@@H](Oc1ccc(Cl)cn1)[C@@H]1CN(C(=O)c2cnc(S(C)(=O)=O)nc2)C[C@H]1c1ccc(Cl)c(Cl)c1 (racemic) [Example 51, [(3SR,4RS)-3-[(RS)-1-(5-Chloro-pyridin-2-yloxy)-ethyl]-4-(3,4-dichloro-phenyl)-pyrrolidin-1-yl]-(2-methanesulfonyl-pyrimidin-5-yl)-methanone]
16 | 0.0125 | C[C@@H](Oc1ccc(Cl)cn1)[C@@H]1CN(C(=O)c2ccc(S(C)(=O)=O)nc2)C[C@H]1c1ccc(Cl)c(Cl)c1 (racemic) [Example 47, [(3SR,4RS)-3-[(RS)-1-(5-Chloro-pyridin-2-yloxy)-ethyl]-4-(3,4-dichloro-phenyl)-pyrrolidin-1-yl]-(6-methanesulfonyl-pyridin-3-yl)-methanone]
17 | 0.0073 | CSc1ccc(C(=O)N2C[C@@H]([C@@H](C)Oc3ccc(Cl)cn3)[C@H](c3ccc(Cl)c(Cl)c3)C2)cn1 (racemic) [Example 45, [(3SR,4RS)-3-[(RS)-1-(5-Chloro-pyridin-2-yloxy)-ethyl]-4-(3,4-dichloro-phenyl)-pyrrolidin-1-yl]-(6-methylsulfanyl-pyridin-3-yl)-methanone]
18 | 0.0065 | C[C@H](Oc1ccc(C(F)(F)F)cn1)[C@H]1CN(C(=O)c2ccc(C#N)cc2)C[C@@H]1c1ccc(Cl)c(Cl)c1 (racemic) [Example 55, 4-{(3SR,4RS)-3-(3,4-Dichloro-phenyl)-4-[(SR)-1-(5-trifluoromethyl-pyridin-2-yloxy)-ethyl]-pyrrolidine-1-carbonyl}-benzonitrile]
19 | 0.0043 | C[C@H](Oc1ccc(C(F)(F)F)cn1)[C@H]1CN(C(=O)c2ccc(C#N)nc2)C[C@@H]1c1ccc(Cl)c(Cl)c1 (racemic) [Example 56, 5-{(3SR,4RS)-3-(3,4-Dichloro-phenyl)-4-[(SR)-1-(5-trifluoromethyl-pyridin-2-yloxy)-ethyl]-pyrrolidine-1-carbonyl}-pyridine-2-carbonitrile]
20 | 0.0021 | C[C@H](Oc1ccc(C#N)cn1)[C@H]1CN(C(=O)c2ccc(-c3nnco3)cc2)C[C@@H]1c1ccc(Cl)c(Cl)c1 (racemic) [Example 63, 6-{(SR)-1[-(3RS,4SR)-4-(3,4-Dichloro-phenyl)-1-(4-[1,3,4]oxadiazol-2-yl-benzoyl)-pyrrolidin-3-yl]-ethoxy}-nicotinonitrile]
21 | 0.0014 | Cc1nc(-c2ccc(C(=O)N3C[C@H]([C@H](C)Oc4ccc(C#N)cn4)[C@@H](c4ccc(Cl)c(Cl)c4)C3)cc2)no1 (racemic) [Example 61, 6-((SR)-1-{(3RS,4SR)-4-(3,4-Dichloro-phenyl)-1-[4-(5-methyl-[1,2,4]oxadiazol-3-yl)-benzoyl]-pyrrolidin-3-yl}-ethoxy)-nicotinonitrile]
22 | 0.0005 | C[C@H](Oc1ccc(C#N)cn1)[C@H]1CN(C(=O)c2ccc(S(=O)(=O)N(C)C)nc2)C[C@@H]1c1ccc(Cl)c(Cl)c1 (racemic) [Example 58, 5-[(3RS,4SR)-3-[(SR)-1-(5-Cyano-pyridin-2-yloxy)-ethyl]-4-(3,4-dichloro-phenyl)-pyrrolidine-1-carbonyl]-pyridine-2-sulfonic acid dimethylamide]
